Results: patent US11033641B2, “Radiolabelled mGluR2/3 pet ligands” (Janssen Pharmaceutica NV, priority 2015, dated 2021)

Columns and labels:
human mGlu2 = target: T1, human mGlu2 (Homo sapiens, UniProt Q14416); assay: [3H]-compound A displacement binding, human mGlu2 HEK293 membranes; conditions: Glu2 HEK293, 6 nM [3H]-compound A
T1 construct: expressed in transfected cells; host or cells: HEK293
Experimental: (§1) For [^3H]-compound A (a NAM compound, selective for mGlu2/3 (˜20 fold selective for 2 over 3) vs other mGluRs) binding, membranes from human mGlu2 and mGlu3 HEK293 cells, and also rat cortical membranes, were used. After thawing, membranes were homogenized using an Ultra Turrax homogenizer and suspended in ice-cold binding buffer containing 50 mM Tris-HCl (pH 7.4), 10 mM MgCl2, 2 mM CaCl2. Displacement studies were done using 6 nM of radioligand, except for human mGlu3 membranes where 25 nM was used. Assay mixtures were incubated for 60 min at RT in a volume of 0.5 ml containing […] or 75 μg membrane protein of human mGlu2, human mGlu3 or rat cortex, respectively. Non-specific binding was estimated in the presence of […] compound B (a NAM with IC50˜10 nM against hmGlu2 and IC50˜200 nM against hmGlu3). Filtration was performed using Whatman GF/C filter sheets pre-soaked in 0.1% PEI and a Brandell harvester 96.
(§2) Filters from filters sheets were punched into vials. After the addition of scintillation liquid, radioactivity on the filters was counted in a Liquid Scintillation Analyzer from Perkin Elmer.
(§3) Radioligand competition binding data were calculated as percentage of total binding measured in the absence of test compound. Inhibition curves, plotting percentage of total binding versus the log concentration of the test compound, were generated using the Lexis software. Sigmoid inhibition curves were analyzed using non-linear regression analysis.

human mGlu3 = target: T2, human mGlu3 (Homo sapiens, UniProt Q14832); assay: [3H]-compound A displacement binding, human mGlu3 HEK293 membranes; conditions: Glu3 HEK293, 25 nM [3H]-compound A
T2 construct: expressed in transfected cells; host or cells: HEK293
Experimental: as §1, §2, §3

Glu2-3 rat cortex = assay: [3H]-compound A displacement binding, rat cortical membranes; conditions: 6 nM [3H]-compound A
Experimental: as §1, §2
Radioligand competition binding data were calculated as percentage of total binding measured in the absence of test compound. […] Sigmoid inhibition curves were analyzed using non-linear regression analysis.

mGluR2/3 = assay: microPET scan, baseline and after compound A pretreatment; format: in vivo; conditions: SD rats
Experimental: Data were acquired in a 128×128×95 matrix with a pixel width of 0.475 mm and a slice thickness of 0.796 mm. During PET imaging, rats were kept under gas anesthesia (2.5% isoflurane in oxygen at a flow rate of 1 l/min), and their body temperature was maintained between 36.5 and 37° C. using a heating pad. PET data were analyzed using Pmod software version 3.2 (Pmod, Zurich Switzerland).
Sprague-Dawley rats obtained from Harlan (the Netherlands), were housed in groups of four to six per cage until treatment. They were kept at a constant temperature of 21° C. and at a 12-h light/dark cycle, in which lights were switched on at 8:00 a.m. Animals had unrestricted access to food (Teklad Global 16% Protein Rodent Diet, Harlan, Madison, Wis., USA) and water. All animal experiments were performed in compliance with Belgium laws on animal experimentation and after approval by the local animal ethics committee.
All pretreatment solutions were 1 mg/mL solutions in 20% β-cyclodextrine in saline with a pH ranging between 6 and 8, and sterile filtered over a Millex GV filter prior to use.
For the baseline scan, 36-43 MBq of [^18F]-1 was injected in 3 SD rats weighing 229-251 g in the tail vein, and scanned simultaneously during a 90 min dynamic PET scan. For the pretreatment scan using compound A (a NAM compound, selective for mGlu2/3 (˜20 fold selective for 2 over 3) vs other mGluRs), the same animals were injected with 10 mg/kg compound A s.c. 60 minutes prior to injection of 38-37 MBq [^18F]-1 in the tail vein, and scanned simultaneously during a 90 minutes dynamic PET scan.
For the baseline scan, 39-49 MBq of [^18F]-2 was injected in 3 SD rats weighing 301-310 g in a tail vein, and scanned simultaneously during a 90-min dynamic PET scan. For the pretreatment scan using compound A, the same animals were injected with 10 mg/kg compound A s.c. 60 min prior to injection of 46-50 MBq [^18F]-2 in the tail vein, and scanned simultaneously during a 90 min dynamic PET scan.

T2 sequence (Q14832 23-879): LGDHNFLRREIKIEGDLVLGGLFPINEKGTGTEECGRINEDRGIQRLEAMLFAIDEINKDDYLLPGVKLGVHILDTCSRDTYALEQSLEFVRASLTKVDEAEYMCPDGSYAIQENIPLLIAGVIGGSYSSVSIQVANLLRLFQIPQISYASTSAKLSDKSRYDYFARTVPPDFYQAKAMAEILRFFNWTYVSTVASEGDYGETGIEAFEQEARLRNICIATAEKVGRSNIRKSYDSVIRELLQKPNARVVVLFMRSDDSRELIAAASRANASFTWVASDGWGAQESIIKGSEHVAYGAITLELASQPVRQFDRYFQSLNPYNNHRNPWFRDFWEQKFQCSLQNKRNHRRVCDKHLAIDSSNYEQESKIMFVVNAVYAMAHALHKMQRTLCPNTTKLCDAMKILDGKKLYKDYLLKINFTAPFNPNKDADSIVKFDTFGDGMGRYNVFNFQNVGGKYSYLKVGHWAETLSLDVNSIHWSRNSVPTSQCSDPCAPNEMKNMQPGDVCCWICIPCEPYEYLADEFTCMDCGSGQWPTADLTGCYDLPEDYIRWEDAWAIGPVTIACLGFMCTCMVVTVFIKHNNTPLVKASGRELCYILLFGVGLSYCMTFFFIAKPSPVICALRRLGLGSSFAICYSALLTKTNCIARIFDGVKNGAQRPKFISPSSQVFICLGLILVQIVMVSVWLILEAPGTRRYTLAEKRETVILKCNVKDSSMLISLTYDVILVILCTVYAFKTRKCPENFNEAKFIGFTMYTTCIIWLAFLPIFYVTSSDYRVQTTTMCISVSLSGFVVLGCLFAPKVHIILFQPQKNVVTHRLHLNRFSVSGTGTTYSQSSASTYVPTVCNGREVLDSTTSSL
T1 sequence (Q14416 19-872): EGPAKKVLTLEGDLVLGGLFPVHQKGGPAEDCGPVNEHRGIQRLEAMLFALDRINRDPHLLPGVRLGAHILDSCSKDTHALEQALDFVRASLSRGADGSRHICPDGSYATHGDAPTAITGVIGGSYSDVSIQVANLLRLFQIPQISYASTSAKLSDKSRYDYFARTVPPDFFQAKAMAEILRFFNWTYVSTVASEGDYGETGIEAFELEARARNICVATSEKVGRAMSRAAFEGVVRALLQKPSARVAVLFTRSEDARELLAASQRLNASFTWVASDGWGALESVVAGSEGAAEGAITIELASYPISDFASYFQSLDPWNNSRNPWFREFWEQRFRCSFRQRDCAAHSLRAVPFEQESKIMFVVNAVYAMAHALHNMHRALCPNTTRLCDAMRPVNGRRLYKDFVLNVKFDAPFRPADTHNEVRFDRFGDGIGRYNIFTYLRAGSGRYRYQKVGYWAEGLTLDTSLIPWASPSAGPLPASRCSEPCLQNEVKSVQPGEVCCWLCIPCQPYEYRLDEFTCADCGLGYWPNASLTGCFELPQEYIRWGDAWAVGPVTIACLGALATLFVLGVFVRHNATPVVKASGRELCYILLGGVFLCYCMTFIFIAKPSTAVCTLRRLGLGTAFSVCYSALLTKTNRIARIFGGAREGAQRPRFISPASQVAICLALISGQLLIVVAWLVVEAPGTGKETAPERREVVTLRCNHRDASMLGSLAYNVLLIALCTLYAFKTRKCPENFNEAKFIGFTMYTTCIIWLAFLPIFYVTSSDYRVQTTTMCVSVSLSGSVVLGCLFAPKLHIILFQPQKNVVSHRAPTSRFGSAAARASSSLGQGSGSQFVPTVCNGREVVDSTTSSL

## C[C@H]1CN(c2ccc(C(F)(F)F)cc2)C(=O)c2c(C#Cc3cnc(N)cc3C[18F])cnn21 [Compound 1]
Human mGlu2
  Eff Curve: 93
  IC50: 2.75 nM
Human mGlu3
  Eff Curve: 104
  IC50: 7.24 nM
Glu2-3 rat cortex
  Eff Curve: 95
  pIC50: 8.78
mGluR2/3; 10 mg/kg compound A s.c. 60 min before tracer
  Brain uptake after pretreatment with compound A: uptake was reduced after pretreatment with compound A
mGluR2/3; 90 min dynamic PET scan
  Brain uptake in PET scan, in words: high brain uptake
mGluR2/3; PET, baseline vs compound A pretreatment
  mGluR2/3 specificity of binding in vivo: good mGluR2/3 specificity
